Columns and labels:
[1] = tested on: Enterococcus sp.; experiment: in vitro antibacterial evaluation, MIC by broth dilution; format: cell-based; details: broth dilution, 18 hours at 35° C.
Summary of the method: (§1)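 Broth dilution per NCCLS M7-A2 in Mueller-Hinton II medium, inoculum 5×10^5 CFU/mL, antibiotic range 64-0.06 μg/mL. MIC taken as lowest concentration inhibiting growth; Gram-positive panel includes recent clinical isolates resistant to methicillin, penicillin and/or vancomycin.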

[2] = tested on: Streptococcus sp.; experiment: as above; format: cell-based; details: broth dilution, 18 hours at 35° C.
Summary of the method: as §1

[3] = tested on: Staphylococcus sp.; experiment: as above; format: cell-based; details: broth dilution, 18 hours at 35° C.
Summary of the method: as §1

[4] = tested on: Escherichia coli; experiment: as above; format: cell-based; details: 18 hours at 35° C., strain ATCC 25922
Summary of the method: as §1

[5] = tested on: Staphylococcus aureus-SMITH (GC 4543); experiment: acute lethal infection in mice; format: in vivo; details: acute lethal infection, female CD-1 mice, intraperitoneal challenge, intravenous 30 min. after infection, 7 day survival
Summary of the method: (§2)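 Intraperitoneal challenge of female CD-1 mice with a bacterial dose lethal to untreated animals within 24-48 hr; single iv treatment 30 min later, 5 mice per dose level. Survival is scored at day 7 and pooled from three experiments to give the median effective dose.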

[6] = tested on: Enterococcus faecalis (GC 2246); experiment: acute lethal infection in mice; format: in vivo; details: female CD-1 mice, intraperitoneal challenge, intravenous 30 min. after infection, 7 day survival
Summary of the method: as §2

CCCC(CCC)C(=O)OCC1OC(OC2C(CO)OC(Oc3ccc(CC4NC(=O)C(C(C)c5ccccc5)NC(=O)CNC(=O)C(CO)NC(=O)C(C(O)C5CNC(=N)N5C5OC(CO)C(O)C(O)C5O)NC(=O)C(C(O)C5CNC(=N)N5)NC4=O)cc3)C(O)C2O)C(O)C(O)C1O (stereo not drawn) [Example 99c, Cyclo[glycyl-β-methylphenylalanyl-O-[4-O-[6-O-(2-propylpentanoyl)hexopyranosyl]-hexolpyranosyl]tyrosyl-3-(2-iminoimidazolidin-4-yl)seryl-3-(3-hexopyranosyl-2-iminoimidazolidin-4-yl)serylseryl]]
2 µg/mL: MIC Enterococcus faecium (GC 4557) ([1]; Enterococcus faecium (GC 4557)) | MIC Enterococcus faecium (GC 4557) ([1]; strain GC 4557) | MIC Coagulase Negative Staphylococcus (GC 4551) [3] | MIC Staphylococcus aureus (GC 1131) [3] | MIC Staphylococcus aureus (GC 4541) [3] | MIC Staphylococcus aureus (GC 4544) [3] | MIC Coagulase Negative Staphylococcus (GC 4551) ([3]; strain GC 4551) | MIC Staphylococcus aureus (GC 1131) ([3]; strain GC 1131) | MIC Staphylococcus aureus (GC 4541) ([3]; strain GC 4541) | MIC Staphylococcus aureus (GC 4544) ([3]; strain GC 4544)
64 µg/mL: MIC Escherichia coli (ATCC 25922) [4]
0.52 mg/kg: median effective dose (ED50), Staphylococcus aureus-SMITH (GC 4543) [5]
1 µg/mL: MIC Coagulase Negative Staphylococcus (GC 4547) [3] | MIC Coagulase Negative Staphylococcus (GC 4548) [3] | MIC Coagulase Negative Staphylococcus (GC 4549) [3] | MIC Coagulase Negative Staphylococcus (ID-3941) [3] | MIC Staphylococcus aureus (ATCC 29213) [3] | MIC Staphylococcus aureus (GC 4542) [3] | MIC Staphylococcus aureus (GC 4545) [3] | MIC Staphylococcus aureus-SMITH (GC 4543) [3] | MIC Staphylococcus haemolyticus (GC 4546) [3] | MIC Staphylococcus haemolyticus (GC 4546) ([3]; strain GC 4546) | MIC Coagulase Negative Staphylococcus (GC 4547) ([3]; strain GC 4547) | MIC Coagulase Negative Staphylococcus (GC 4548) ([3]; strain GC 4548) | MIC Coagulase Negative Staphylococcus (GC 4549) ([3]; strain GC 4549) | MIC Coagulase Negative Staphylococcus (ID-3941) ([3]; strain ID-3941) | MIC Staphylococcus aureus-SMITH (GC 4543) ([3]; strain SMITH GC 4543) | MIC Staphylococcus aureus (ATCC 29213) ([3]; strain ATCC 29213) | MIC Staphylococcus aureus (GC 4542) ([3]; strain GC 4542) | MIC Staphylococcus aureus (GC 4545) ([3]; strain GC 4545)
4 µg/mL: MIC Enterococcus avium (GC 4558) ([1]; Enterococcus avium (GC 4558)) | MIC Enterococcus faecalis (ATCC 29212) ([1]; Enterococcus faecalis (ATCC 29212)) | MIC Enterococcus faecalis (GC 2242) ([1]; Enterococcus faecalis (GC 2242)) | MIC Enterococcus faecalis (GC 4552) ([1]; Enterococcus faecalis (GC 4552)) | MIC Enterococcus faecalis (GC 4553) ([1]; Enterococcus faecalis (GC 4553)) | MIC Enterococcus faecalis (GC 4554) ([1]; Enterococcus faecalis (GC 4554)) | MIC Enterococcus faecium (GC 2243) ([1]; Enterococcus faecium (GC 2243)) | MIC Enterococcus faecium (GC 4556) ([1]; Enterococcus faecium (GC 4556)) | MIC Enterococcus faecalis (ATCC 29212) ([1]; strain ATCC 29212) | MIC Enterococcus faecalis (GC 2242) ([1]; strain GC 2242) | MIC Enterococcus faecium (GC 2243) ([1]; strain GC 2243) | MIC Enterococcus faecalis (GC 4552) ([1]; strain GC 4552) | MIC Enterococcus faecalis (GC 4553) ([1]; strain GC 4553) | MIC Enterococcus faecalis (GC 4554) ([1]; strain GC 4554) | MIC Enterococcus faecium (GC 4556) ([1]; strain GC 4556) | MIC Enterococcus avium (GC 4558) ([1]; strain GC 4558)
4.3 mg/kg: median effective dose (ED50), Enterococcus faecalis (GC 2246) [6]
<0.5 µg/mL: MIC Streptococcus agalactiae (GC 4564) ([2]; Streptococcus agalactiae (GC 4564)) | MIC Streptococcus pneumoniae (GC 4565) ([2]; Streptococcus pneumoniae (GC 4565)) | MIC Streptococcus pyogenes (ID-3187) ([2]; Streptococcus pyogenes (ID-3187)) | MIC Streptococcus agalactiae (GC 4564) ([2]; strain GC 4564) | MIC Streptococcus pneumoniae (GC 4565) ([2]; strain GC 4565) | MIC Streptococcus pyogenes (ID-3187) ([2]; strain ID-3187)
